In ChEMBL document CHEMBL4507276 (2021):

Columns and labels:
[1] = biological target: Ribosomal protein S6 kinase alpha-5 (Homo sapiens) (UniProt O75582); details: Compound concentration 1000.0 nM
[2] = biological target: Serine/threonine-protein kinase TNNI3K (Homo sapiens) (UniProt Q59H18); details: Compound concentration 1000.0 nM
[3] = biological target: NT-3 growth factor receptor (Homo sapiens) (UniProt Q16288); details: Compound concentration 1000.0 nM
[4] = biological target: Alpha-2C adrenergic receptor (Homo sapiens) (UniProt P18825); details: Compound concentration 10.0 uM
[5] = biological target: Alpha-2C adrenergic receptor (Homo sapiens) (UniProt P18825); experiment: ALPHA2CH_ANTAG Cerep selectivity data (BI); details: filed as antagonist, Compound concentration 20.0 uM
[6] = biological target: Gamma-aminobutyric acid receptor subunit alpha-1 (Rattus norvegicus) (UniProt P62813); experiment: BZD/CENTR/R Cerep selectivity data (BI); details: Compound concentration 20.0 uM
[7] = biological target: Chloride channel protein 1 (Rattus norvegicus) (UniProt P35524); experiment: CL-CHANNEL/R Cerep selectivity data (BI); details: Compound concentration 20.0 uM
[8] = biological target: Prostaglandin E2 receptor EP2 subtype (Homo sapiens) (UniProt P43116); experiment: EP2(H) Cerep selectivity data (BI); details: filed as agonist, Compound concentration 20.0 uM
[9] = biological target: Kappa-type opioid receptor (Rattus norvegicus) (UniProt P34975); experiment: KAPPA/R Cerep selectivity data (BI); details: Compound concentration 20.0 uM
Cricetinae = experiment: ML2(MT3) Cerep selectivity data (BI); details: Compound concentration 20.0 uM
[10] = biological target: Nicotinic acetylcholine receptor alpha-1/beta-1 (Homo sapiens) (UniProt P02708+P11230); experiment: NMUSCLEH_ANTAG Cerep selectivity data (BI); type: protein-complex assay; details: filed as antagonist, Compound concentration 20.0 uM
[11] = biological target: Adenosine receptor A2a (Homo sapiens) (UniProt P29274); experiment: A2A/HU Eurofins-Panlabs selectivity data (BI); details: Compound concentration 10.0 uM
hERG (KCNH2) = hERG (KCNH2) (Homo sapiens, UniProt Q12809); experiment: K+/HERG Eurofins-Panlabs selectivity data (BI); details: compound concentration 10 uM, read-out: % Ctrl
[12] = biological target: Platelet-activating factor receptor (Homo sapiens) (UniProt P25105); experiment: PAF/H Eurofins-Panlabs selectivity data (BI); details: Compound concentration 10.0 uM
[13] = biological target: Androgen receptor (Rattus norvegicus) (UniProt P15207); experiment: TESTOST/RA Eurofins-Panlabs selectivity data (BI); details: Compound concentration 10.0 uM
[14] = biological target: Tyrosine-protein kinase Lck (Homo sapiens) (UniProt P06239); experiment: LCK Invitrogen selectivity data (BI); details: Compound concentration 3.0 uM
[15] = biological target: Mitogen-activated protein kinase 11 (Homo sapiens) (UniProt Q15759); experiment: MAPK11 Invitrogen selectivity data (BI); details: Compound concentration 3.0 uM
[16] = biological target: T1, MAP kinase-activated protein kinase 5 (Homo sapiens) (UniProt Q8IW41); experiment: MAPKAPK5 Invitrogen selectivity data (BI); details: Compound concentration 3.0 uM
T1 sequence (whole entry): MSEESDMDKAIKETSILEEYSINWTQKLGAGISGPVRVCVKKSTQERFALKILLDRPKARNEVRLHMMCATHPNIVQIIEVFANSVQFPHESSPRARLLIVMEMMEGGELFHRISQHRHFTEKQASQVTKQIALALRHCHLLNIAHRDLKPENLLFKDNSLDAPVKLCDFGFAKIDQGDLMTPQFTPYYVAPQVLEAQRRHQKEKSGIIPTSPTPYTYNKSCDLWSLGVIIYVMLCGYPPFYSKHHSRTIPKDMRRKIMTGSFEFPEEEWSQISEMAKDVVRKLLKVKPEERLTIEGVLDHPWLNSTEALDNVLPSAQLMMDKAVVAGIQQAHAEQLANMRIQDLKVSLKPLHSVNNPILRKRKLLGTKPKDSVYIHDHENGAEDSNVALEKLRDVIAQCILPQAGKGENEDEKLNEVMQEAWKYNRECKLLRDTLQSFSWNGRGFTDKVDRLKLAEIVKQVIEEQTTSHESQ

[17] = biological target: Myosin light chain kinase 2, skeletal/cardiac muscle (Homo sapiens) (UniProt Q9H1R3); experiment: MYLK2 Invitrogen selectivity data (BI); details: Compound concentration 3.0 uM
[18] = biological target: Phosphatidylinositol 4-kinase alpha (Homo sapiens) (UniProt P42356); experiment: PI4KA Invitrogen selectivity data (BI); details: Compound concentration 3.0 uM
[19] = biological target: Phosphatidylinositol 4,5-bisphosphate 3-kinase catalytic subunit gamma isoform (Homo sapiens) (UniProt P48736); experiment: PIK3CG Invitrogen selectivity data (BI); details: Compound concentration 3.0 uM
[20] = biological target: T2, Serine/threonine-protein kinase D3 (Homo sapiens) (UniProt O94806); experiment: PRKCN Invitrogen selectivity data (BI); details: Compound concentration 3.0 uM
T2 sequence (whole entry): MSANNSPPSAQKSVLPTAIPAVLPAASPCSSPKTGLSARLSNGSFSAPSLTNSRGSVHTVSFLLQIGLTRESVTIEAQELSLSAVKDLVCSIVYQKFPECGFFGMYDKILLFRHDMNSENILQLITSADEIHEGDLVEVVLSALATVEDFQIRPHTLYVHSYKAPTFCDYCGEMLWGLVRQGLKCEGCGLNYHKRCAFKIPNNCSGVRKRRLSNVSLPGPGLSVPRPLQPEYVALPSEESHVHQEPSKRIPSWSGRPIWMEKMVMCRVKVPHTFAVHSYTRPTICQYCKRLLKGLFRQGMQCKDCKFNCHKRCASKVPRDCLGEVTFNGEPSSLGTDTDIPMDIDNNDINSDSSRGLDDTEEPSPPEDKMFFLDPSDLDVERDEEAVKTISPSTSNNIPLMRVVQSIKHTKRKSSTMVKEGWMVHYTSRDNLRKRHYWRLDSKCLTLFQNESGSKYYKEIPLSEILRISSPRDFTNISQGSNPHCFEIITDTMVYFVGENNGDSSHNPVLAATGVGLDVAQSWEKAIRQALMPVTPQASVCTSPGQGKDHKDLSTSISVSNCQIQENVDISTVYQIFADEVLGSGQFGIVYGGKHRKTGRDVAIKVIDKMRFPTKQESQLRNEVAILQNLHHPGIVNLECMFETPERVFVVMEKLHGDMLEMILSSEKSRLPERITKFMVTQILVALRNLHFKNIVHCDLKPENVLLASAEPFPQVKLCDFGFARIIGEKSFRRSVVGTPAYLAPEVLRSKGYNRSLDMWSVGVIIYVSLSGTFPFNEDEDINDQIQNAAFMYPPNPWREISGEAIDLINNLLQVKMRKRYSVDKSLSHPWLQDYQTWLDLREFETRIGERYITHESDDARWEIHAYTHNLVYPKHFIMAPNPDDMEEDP

[21] = tested on: Proto-oncogene tyrosine-protein kinase receptor Ret (Homo sapiens), P07949 [V804L]; experiment: RET V804L Invitrogen selectivity data (BI); details: Compound concentration 3.0 uM
[22] = biological target: Serine/threonine-protein kinase SIK2 (Homo sapiens) (UniProt Q9H0K1); experiment: SNF1LK2 Invitrogen selectivity data (BI); details: Compound concentration 3.0 uM
[23] = biological target: Sphingosine kinase 2 (Homo sapiens) (UniProt Q9NRA0); experiment: SPHK2 Invitrogen selectivity data (BI); details: Compound concentration 3.0 uM
[24] = biological target: Activated CDC42 kinase 1 (Homo sapiens) (UniProt Q07912); experiment: TNK2 Invitrogen selectivity data (BI); details: Compound concentration 3.0 uM
Activated CDC42 kinase 1 (Homo sapiens), sequence (Q07912 whole entry, looked up): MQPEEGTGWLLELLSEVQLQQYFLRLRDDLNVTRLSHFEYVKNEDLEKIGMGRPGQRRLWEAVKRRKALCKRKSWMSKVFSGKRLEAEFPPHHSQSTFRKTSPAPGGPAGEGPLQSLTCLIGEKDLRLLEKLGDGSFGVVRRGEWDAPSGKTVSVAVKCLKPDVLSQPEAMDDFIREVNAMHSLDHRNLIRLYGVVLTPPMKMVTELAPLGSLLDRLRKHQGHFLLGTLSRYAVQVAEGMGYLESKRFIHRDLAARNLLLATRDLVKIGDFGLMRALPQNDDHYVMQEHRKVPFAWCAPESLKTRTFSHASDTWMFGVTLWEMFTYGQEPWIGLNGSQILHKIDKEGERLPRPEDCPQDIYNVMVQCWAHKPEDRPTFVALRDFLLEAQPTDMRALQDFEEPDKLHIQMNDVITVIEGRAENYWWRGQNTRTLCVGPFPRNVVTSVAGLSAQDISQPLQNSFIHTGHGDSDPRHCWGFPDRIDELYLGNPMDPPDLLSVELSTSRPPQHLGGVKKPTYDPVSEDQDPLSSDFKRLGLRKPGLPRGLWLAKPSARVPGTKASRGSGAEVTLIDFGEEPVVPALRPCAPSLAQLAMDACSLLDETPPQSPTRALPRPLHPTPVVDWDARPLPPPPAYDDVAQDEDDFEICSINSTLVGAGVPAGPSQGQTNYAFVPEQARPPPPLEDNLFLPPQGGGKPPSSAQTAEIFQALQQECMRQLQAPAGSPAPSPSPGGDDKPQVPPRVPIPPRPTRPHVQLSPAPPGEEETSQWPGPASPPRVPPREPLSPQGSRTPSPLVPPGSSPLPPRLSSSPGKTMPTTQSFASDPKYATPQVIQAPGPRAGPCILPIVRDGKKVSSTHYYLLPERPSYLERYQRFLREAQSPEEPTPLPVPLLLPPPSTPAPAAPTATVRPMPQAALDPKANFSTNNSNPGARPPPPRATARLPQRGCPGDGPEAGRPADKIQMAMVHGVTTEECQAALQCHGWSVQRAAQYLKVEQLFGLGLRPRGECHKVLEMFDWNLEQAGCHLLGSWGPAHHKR

Alpha-2C adrenergic receptor (Homo sapiens), sequence (P18825 whole entry): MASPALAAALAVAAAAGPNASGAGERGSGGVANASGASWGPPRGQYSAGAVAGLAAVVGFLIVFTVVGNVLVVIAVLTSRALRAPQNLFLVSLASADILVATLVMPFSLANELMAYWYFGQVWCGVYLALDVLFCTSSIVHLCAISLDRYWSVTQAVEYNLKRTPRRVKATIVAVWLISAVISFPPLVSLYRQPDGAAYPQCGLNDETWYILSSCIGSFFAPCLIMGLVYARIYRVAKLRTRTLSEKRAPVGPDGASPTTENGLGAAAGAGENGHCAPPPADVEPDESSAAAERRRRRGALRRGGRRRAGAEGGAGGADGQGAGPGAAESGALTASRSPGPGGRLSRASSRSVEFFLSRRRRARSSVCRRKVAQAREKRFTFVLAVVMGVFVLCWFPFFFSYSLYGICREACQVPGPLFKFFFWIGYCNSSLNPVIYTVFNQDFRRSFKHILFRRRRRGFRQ
Androgen receptor (Rattus norvegicus), sequence (P15207 whole entry S389L): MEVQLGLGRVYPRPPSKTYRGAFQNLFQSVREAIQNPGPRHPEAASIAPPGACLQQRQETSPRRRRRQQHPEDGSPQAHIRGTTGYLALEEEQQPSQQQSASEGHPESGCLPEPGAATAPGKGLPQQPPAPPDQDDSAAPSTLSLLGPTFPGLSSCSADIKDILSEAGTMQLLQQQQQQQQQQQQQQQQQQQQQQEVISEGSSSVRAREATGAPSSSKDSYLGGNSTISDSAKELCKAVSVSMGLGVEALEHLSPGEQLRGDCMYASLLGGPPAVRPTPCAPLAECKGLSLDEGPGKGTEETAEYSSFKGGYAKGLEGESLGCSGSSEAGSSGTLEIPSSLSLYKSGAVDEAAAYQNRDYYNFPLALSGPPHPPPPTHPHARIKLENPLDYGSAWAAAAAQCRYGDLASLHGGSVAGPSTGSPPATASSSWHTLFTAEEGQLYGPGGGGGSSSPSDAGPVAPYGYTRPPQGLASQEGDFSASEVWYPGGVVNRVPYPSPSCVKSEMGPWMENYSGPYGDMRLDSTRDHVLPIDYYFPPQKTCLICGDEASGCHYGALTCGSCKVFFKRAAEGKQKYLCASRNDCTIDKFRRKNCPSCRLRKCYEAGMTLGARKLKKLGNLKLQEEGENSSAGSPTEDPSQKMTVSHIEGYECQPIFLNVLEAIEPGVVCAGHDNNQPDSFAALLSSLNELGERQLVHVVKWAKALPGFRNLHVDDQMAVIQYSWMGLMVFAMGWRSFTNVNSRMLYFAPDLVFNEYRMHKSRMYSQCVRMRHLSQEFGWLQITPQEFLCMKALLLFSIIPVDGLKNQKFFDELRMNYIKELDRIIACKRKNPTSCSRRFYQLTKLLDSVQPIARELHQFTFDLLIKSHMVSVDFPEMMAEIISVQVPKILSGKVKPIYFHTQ
Tyrosine-protein kinase Lck (Homo sapiens), sequence (P06239 2-509 limits assumed): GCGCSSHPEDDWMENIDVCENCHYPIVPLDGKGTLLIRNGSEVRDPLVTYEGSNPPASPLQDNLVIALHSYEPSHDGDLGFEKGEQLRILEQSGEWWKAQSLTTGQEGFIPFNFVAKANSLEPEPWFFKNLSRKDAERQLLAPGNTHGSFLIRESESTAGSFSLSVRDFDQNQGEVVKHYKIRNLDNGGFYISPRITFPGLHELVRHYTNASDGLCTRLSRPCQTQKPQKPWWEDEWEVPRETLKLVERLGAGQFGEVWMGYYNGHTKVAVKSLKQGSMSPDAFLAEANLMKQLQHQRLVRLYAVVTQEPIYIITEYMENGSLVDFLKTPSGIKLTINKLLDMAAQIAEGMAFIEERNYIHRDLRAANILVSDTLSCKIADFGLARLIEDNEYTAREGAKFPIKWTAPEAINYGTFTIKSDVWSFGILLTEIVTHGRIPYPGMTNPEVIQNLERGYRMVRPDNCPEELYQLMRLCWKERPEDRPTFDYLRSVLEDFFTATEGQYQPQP
Gamma-aminobutyric acid receptor subunit alpha-1 (Rattus norvegicus), sequence (P62813 whole entry): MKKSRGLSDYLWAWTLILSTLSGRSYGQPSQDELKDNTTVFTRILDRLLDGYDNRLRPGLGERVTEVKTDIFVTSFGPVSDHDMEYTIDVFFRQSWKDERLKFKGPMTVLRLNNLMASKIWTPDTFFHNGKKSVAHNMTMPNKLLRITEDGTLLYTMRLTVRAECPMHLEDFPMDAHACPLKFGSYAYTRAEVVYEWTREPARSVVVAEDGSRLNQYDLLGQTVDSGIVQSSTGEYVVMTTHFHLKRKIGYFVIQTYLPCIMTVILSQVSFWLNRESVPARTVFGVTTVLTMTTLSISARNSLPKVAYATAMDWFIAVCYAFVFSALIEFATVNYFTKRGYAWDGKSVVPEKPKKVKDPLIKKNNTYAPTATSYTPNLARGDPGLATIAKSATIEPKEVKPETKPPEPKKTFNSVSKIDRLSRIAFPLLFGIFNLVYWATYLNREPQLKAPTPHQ
Sphingosine kinase 2 (Homo sapiens), sequence (Q9NRA0 whole entry): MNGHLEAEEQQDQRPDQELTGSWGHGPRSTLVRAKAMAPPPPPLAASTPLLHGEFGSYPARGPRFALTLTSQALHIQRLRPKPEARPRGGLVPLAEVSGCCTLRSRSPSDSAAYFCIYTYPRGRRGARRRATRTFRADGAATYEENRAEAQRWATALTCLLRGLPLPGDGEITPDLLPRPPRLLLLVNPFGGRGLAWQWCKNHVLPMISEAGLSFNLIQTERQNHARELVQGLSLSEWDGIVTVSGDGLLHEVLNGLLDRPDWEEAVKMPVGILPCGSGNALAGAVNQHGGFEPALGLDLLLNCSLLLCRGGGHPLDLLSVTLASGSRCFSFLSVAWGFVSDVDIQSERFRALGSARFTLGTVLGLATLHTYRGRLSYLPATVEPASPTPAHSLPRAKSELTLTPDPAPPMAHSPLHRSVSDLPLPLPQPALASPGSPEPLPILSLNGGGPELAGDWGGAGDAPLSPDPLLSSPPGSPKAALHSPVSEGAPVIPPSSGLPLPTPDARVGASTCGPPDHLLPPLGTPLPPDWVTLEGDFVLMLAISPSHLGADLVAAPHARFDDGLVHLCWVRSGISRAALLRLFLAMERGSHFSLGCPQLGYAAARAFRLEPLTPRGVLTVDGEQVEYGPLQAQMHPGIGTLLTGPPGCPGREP
NT-3 growth factor receptor (Homo sapiens), sequence (Q16288 32-839 limits assumed): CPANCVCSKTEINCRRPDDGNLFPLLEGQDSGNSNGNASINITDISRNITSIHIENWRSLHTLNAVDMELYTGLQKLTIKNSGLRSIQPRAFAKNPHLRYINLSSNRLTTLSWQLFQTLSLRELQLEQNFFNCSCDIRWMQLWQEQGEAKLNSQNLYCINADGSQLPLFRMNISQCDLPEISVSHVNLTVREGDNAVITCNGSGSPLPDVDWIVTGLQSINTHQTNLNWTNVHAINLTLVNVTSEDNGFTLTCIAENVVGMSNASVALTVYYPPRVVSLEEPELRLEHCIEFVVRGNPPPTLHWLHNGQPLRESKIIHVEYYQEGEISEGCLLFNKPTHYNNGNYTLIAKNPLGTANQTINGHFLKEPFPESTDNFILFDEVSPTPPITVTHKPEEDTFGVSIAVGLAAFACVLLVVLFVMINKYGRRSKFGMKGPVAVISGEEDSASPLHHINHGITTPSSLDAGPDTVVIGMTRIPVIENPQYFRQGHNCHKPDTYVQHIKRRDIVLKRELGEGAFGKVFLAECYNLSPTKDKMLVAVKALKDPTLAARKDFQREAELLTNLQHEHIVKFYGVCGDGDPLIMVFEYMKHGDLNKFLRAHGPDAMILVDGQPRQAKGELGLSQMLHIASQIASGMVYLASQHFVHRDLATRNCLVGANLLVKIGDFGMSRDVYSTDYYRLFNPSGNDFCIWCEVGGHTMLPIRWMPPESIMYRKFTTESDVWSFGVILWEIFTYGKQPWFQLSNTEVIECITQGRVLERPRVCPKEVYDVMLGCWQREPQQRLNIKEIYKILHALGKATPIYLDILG

`CN(C)C(=O)Cn1cc(-c2nc(C3(c4ccc(-c5cnc(N)nc5)cc4)CC3)no2)cn1` [BI 0153] gave a residual activity [1] of 67%, a residual activity [2] of 100% and a residual activity [3] of 97%. The inhibition [4] was 4.1%.

Work on `CN(C)C(=O)Cn1cc(-c2nc([C@@](C)(c3ccc(-c4cnc(N)nc4)cc3)C3CC3)no2)cn1` [BI 665915] yielded a residual activity [5] of 103%, a residual activity [6] of 117% and a residual activity [7] of 88%. For the same compound, the residual activity [8] was 97%, the residual activity [9] was 91% and the residual activity (Cricetinae) was 70%. For the same compound, the residual activity [10] was 120%, the residual activity [11] was 105% and the activity at 10 µM (hERG (KCNH2)) was 90% (not active). The residual activity [12] was 71%, the residual activity [13] was 99% and the residual activity [14] was 91.5%. The residual activity [15] was 93%, the residual activity [16] was 98.5% and the residual activity [17] was 89.5%. For the same compound, the residual activity [18] was 106%, the residual activity [19] was 104% and the residual activity [20] was 94.5%. For the same compound, the residual activity [21] was 72%, the residual activity [22] was 97.5% and the residual activity [23] was 97%. The residual activity [24] was 99%.
